# Reference: US6727227B1, “Tetrapetide revealing geroprotective effect, pharmacological substance on its basis, and the method of its application” (Obschestvo S Ogranichennoi Otvetstven-Nostiju “Klinika …, priority 2002, dated 2004)
# Like-named read-outs stand apart in the source and are kept apart here. Marks after values point to notes of the source that are not given here. Residues, ends and D or L forms follow the SMILES beside them.
# Columns and labels:
# [1] = system: Drosophila melanogaster of LA strain; assay: Life span and ageing rate, LA strain; assay type: in vivo; details: for ALS / Me / LSmax (maximal life span): 0.00001% of medium weight; for LSmax (maximal life span): in days
# From the text: (§1) The impact produced by L-Ala-L-Glu-L-Asp-Gly tetrapeptide (SEQ ID NO: 1) on catalase activity, the content of the products of lipid peroxide oxidation (LPO), life span, and the ageing rate were studied in Drosophila melanogaster of LA strain.
# One-day old flies were placed in test tubes, 10 individuals of the same sex in each. Every 2 days they were transferred to a fresh medium taking into consideration the number of deceased individuals. The average and maximal life spans were defined. The ageing rate was calculated by the parameters of Gomperz equation.
# (§2) L-Ala-L-Glu-L-Asp-Gly tetrapeptide (SEQ ID NO: 1) was applied in the larvae of the 3rd age in dose 0.00001% of the culture medium weight, which constituted approximately 0.015 mg/100 ml. Catalase activity was estimated by generally accepted methods in the homogenates of adult 14 days old flies. The experiment was carried out with a subsequent repetition.
# (§3) Regression and dispersal analyses served as the basic technique of statistic processing. The authenticity of differences was confirmed by the method of minimal relevant diversity.
# [2] = system: white outbred rats; assay: Subacute toxicity, 90 days; assay type: in vivo; details: intramuscularly daily for 90 days, 1 μg/kg, 0.3 mg/kg, 3 mg/kg
# Procedure: Experimental animals were exposed daily to a single administration of the drug intramuscularly for 90 days in doses 1 μg/kg, 0.3 mg/kg, 3 mg/kg in 0.5 ml of sodium chloride solution. Animals of the control group were administered with the same amount of sodium chloride.
# Within the whole period of study the animals were under daily observation. Behaviour of the animals, their rations and water consumption, the state of hair integument and mucous membranes were registered. The animals were weighed weekly. Prior to and on the 30th, 60th, and 90th days of the drug administration the morphological composition and properties of the peripheral blood were examined. Upon the experiment completion biochemical and coagulologic indices of blood were investigated.
# [3] = system: Drosophila melanogaster of LA strain; assay: Content of lipid peroxide oxidation products (conjugated hydro-peroxides), LA strain; assay type: in vivo
# Procedure: as §1, §2, §3
# [4] = system: Drosophila melanogaster of “wild” Canton-S strain; details: for ALS ± statistic errors / Alterations in ALS: Canton-S; for Alterations in ALS: versus control
# Procedure: In this research Drosophila melanogaster of “wild” Canton-S strain were employed.
# L-Ala-L-Glu-L-Asp-Gly tetrapeptide (SEQ ID NO: 1) in the solution form was introduced into the culture medium provided for the growth of insects, which was cooled down to 50-60° C., with subsequent careful stirring and depositing it into test tubes.
# To make the conditions of both the control and experimental population development identical, an amount of sodium chloride equal to that used for L-Ala-L-Glu-L-Asp-Gly tetrapeptide (SEQ ID NO: 1) solution was introduced into the culture medium for the control. The concentration of all the substances employed was calculated by the ratio to the mass of the culture medium provided for reproduction.
# 4-day old female flies underwent a randomly selected mating with males for 72 hours, one couple per each test tube, after which parental couples were removed from the test tubes. To form every new generation the posterity of 50 to 80 couples was used.
# Life span (LS) was investigated on laboratory populations, each of them consisting of 90 individuals of each sex. Immediately after hatching the flies were randomly placed in test tubes, 10 individuals in each. Substitution of the culture medium was carried out 3 times a week.
# Average values (ALS) and standard errors calculated by the traditional method were applied as life span distribution parameters. Average values were compared to each other with the application of Student t-criterion.
# For experimental study 6 concentrations of L-Ala-L-Glu-L-Asp-Gly tetrapeptide (SEQ ID NO: 1) were selected: 0.01×, 0.1×, 1×, 5×, 7.5×, and 12.5×10^−6% of the culture medium weight.
# [5] = system: Drosophila melanogaster of HEM strain; assay: Life span and ageing rate, HEM strain; assay type: in vivo; details: for 90% (the age, which 90% of the individuals reach) / ALS (average life span) / MRDT (mortality-rate doubling time) / Me (median life span) / R · 10^−2 (parameter of Gomperz equation): 0.00001% of medium
# From the text: L-Ala-L-Glu-L-Asp-Gly tetrapeptide (SEQ ID NO: 1) was applied in Drosophila melanogaster larvae of the 2nd age of HEM strain selected for a high ageing rate (20). HEM strain is characterised by the unique dynamics of embryonic mortality, which consists in an increased frequency of early embryonic lethal outcomes from 65% on the 1st day of egg-laying up to 95% on the 4th day, in a reduced average life span (29 days), and in a raised intensity of lipid peroxide oxidation.
# L-Ala-L-Glu-L-Asp-Gly tetrapeptide (SEQ ID NO: 1) was added in proportion 0.00001% of the culture medium weight, which was an extremely low dose. The doses described in literature on the influence of various substances on Drosophila melanogaster usually ranged from 0.001 to 0.01%.
# [6] = females, concentration 0.01 ×10^−6%
# [7] = females, concentration 0.1 ×10^−6%
# [8] = females, concentration 1.0 ×10^−6%
# [9] = females, concentration 5.0 ×10^−6%
# [10] = females, concentration 7.5 ×10^−6%
# [11] = females, concentration 12.5 ×10^−6%
# [12] = males, concentration 0.01 ×10^−6%
# [13] = males, concentration 0.1 ×10^−6%
# [14] = males, concentration 1.0 ×10^−6%
# [15] = males, concentration 5.0 ×10^−6%
# [16] = males, concentration 7.5 ×10^−6%
# [17] = males, concentration 12.5 ×10^−6%
smiles,measurement,setting,value
"C[C@H](N)C(=O)N[C@@H](CCC(=O)O)C(=O)N[C@@H](CC(=O)O)C(=O)NCC(=O)O [L-Ala-L-Glu-L-Asp-Gly tetrapeptide, L-alanyl-L-glutamyl-L-aspartyl-glycine] (H-AEDG-OH)",LSmax without taking into consideration intersexual distinctions,[1]; both sexes,notably extended
same,G 10^2 (parameter of Gomperz equation),[1]; females,4.3 ± 0.90 days^−1
same,LnR0 (parameter of Gomperz equation),[1]; females,-3.806 ± 0.2580 day⁻¹
same,MRDT,[1]; females,3.8
same,Type of geroprotector (survival rate curves and Gomperz charts),[1]; females,geroprotector of the 1st type
same,ALS,[1]; females,20 ± 1.3 days
same,Me,[1]; females,17 days
same,LSmax (maximal life span),[1]; females,44 ± 1.9
same,G 10^2 (parameter of Gomperz equation),[1]; males,10.9 ± 3.45 days^−1
same,LnR0 (parameter of Gomperz equation),[1]; males,−5.496 ± 0.711 days^1
same,MRDT,[1]; males,2.9
same,Type of geroprotector (survival rate curves and Gomperz charts),[1]; males,geroprotector of the 3rd type
same,ALS,[1]; males,24 ± 0.96 days
same,Me,[1]; males,28.5 days
same,LSmax (maximal life span),[1]; males,33 ± 0.9
same,"Side effects, subacute toxicity",[2],absence of side effects
same,Content of conjugated hydro-peroxides,[3]; females,1.290* nmole/g of tissue
same,Content of conjugated hydro-peroxides,[3]; males,1.202 nmole/g of tissue
same,ALS ± statistic errors,[4]; [6],35.41 ± 1.07
same,Alterations in ALS,[4]; [6],13.4%
same,Alterations in ALS,"[4]; females, concentration 0.01 ×10^−6%, listed as L-Ala-L-Glu-L-Asp-Gly",+13.4%
same,ALS ± statistic errors,[4]; [7],35.41 ± 1.07
same,Alterations in ALS,[4]; [7],11.8%
same,Alterations in ALS,"[4]; females, concentration 0.1 ×10^−6%, listed as L-Ala-L-Glu-L-Asp-Gly",+11.8%
same,ALS ± statistic errors,[4]; [8],35.76 ± 1.35
same,Alterations in ALS,[4]; [8],−1.1%
same,ALS ± statistic errors,[4]; [9],38.04 ± 1.56
same,Alterations in ALS,[4]; [9],+3.2%
same,ALS ± statistic errors,[4]; [10],31.16 ± 1.21
same,Alterations in ALS,[4]; [10],−7.6%
same,ALS ± statistic errors,[4]; [11],37.06 ± 1.12
same,Alterations in ALS,[4]; [11],+5.6%
same,Duration of stage development (lack of genotoxic effect),[4]; in vivo,did not alter the duration of their stage development
same,ALS ± statistic errors,[4]; [12],36.47 ± 1.09
same,Alterations in ALS,[4]; [12],+12.0%
same,ALS ± statistic errors,[4]; [13],34.85 ± 1.18
same,Alterations in ALS,[4]; [13],+10.8%
same,ALS ± statistic errors,[4]; [14],36.77 ± 1.44
same,Alterations in ALS,[4]; [14],+13.3%
same,ALS ± statistic errors,[4]; [15],37.74 ± 1.16
same,Alterations in ALS,[4]; [15],+11.3%
same,ALS ± statistic errors,[4]; [16],39.98 ± 0.99
same,Alterations in ALS,[4]; [16],−0.03%
same,ALS ± statistic errors,[4]; [17],33.96 ± 1.01
same,Alterations in ALS,[4]; [17],−9.0%
same,"90% (the age, which 90% of the individuals reach)",[5]; females,76 days
same,ALS (average life span),[5]; females,48 + days
same,MRDT (mortality-rate doubling time),[5]; females,3.9
same,Me (median life span),[5]; females,48.0 days
same,R · 10^−2 (parameter of Gomperz equation),[5]; females,4.0 + days^−1
same,"90% (the age, which 90% of the individuals reach)",[5]; males,62 days
same,ALS (average life span),[5]; males,42 + 1.3 days
same,MRDT (mortality-rate doubling time),[5]; males,3.8
same,Me (median life span),[5]; males,38.0 days
same,R · 10^−2 (parameter of Gomperz equation),[5]; males,4.5 + days^−1
same,Increase of the average life span,[5]; versus control,26%
same,Reduction of the population real ageing rate (Gomperz parameter),[5]; versus control,40%
